Patent publication US6716833B2, “Acetylenic α-amino acid-based sulfonamide hydroxamic acid tace inhibitors” (priority 1999, dated 2004)
Where a name gives a salt, the structure may show the parent alone. Read-outs that look alike come from different tables or passages of the source.

How the values were obtained:
Assay type in all cases: biochemical
MMP-13 = MMP-13 (Homo sapiens, UniProt P45452); assay: MMP-13 inhibition (thiopeptide or fluorescent peptide substrate)
MMP-9 = MMP-9 (Homo sapiens, UniProt P14780); assay: MMP-9 inhibition (thiopeptide or fluorescent peptide substrate); details: read-out: MMP-9 IC50
MMP-9, sequence (P14780 94-707): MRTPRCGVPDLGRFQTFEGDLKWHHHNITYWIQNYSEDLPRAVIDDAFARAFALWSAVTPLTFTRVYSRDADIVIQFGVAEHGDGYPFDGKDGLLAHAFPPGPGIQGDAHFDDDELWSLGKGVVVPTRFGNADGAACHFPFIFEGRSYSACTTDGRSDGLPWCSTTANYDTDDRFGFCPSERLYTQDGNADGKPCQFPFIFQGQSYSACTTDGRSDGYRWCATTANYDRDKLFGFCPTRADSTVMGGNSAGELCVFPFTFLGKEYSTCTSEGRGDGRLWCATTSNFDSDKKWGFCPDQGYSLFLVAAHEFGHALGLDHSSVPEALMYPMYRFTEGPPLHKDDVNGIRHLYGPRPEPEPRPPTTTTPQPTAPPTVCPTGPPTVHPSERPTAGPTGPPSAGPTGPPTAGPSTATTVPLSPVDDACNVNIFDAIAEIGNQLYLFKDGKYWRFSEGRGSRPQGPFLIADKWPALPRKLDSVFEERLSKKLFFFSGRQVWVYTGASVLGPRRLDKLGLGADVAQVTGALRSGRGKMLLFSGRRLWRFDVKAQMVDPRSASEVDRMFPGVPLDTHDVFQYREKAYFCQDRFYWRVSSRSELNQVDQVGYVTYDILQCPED

[1] = target: TNF-α converting enzyme (TACE) (Homo sapiens, UniProt P78536); assay: TACE inhibition (fluorescent peptidyl substrate); details: read-out: TACE IC50
TNF-α converting enzyme (TACE), sequence (P78536 215-824, species assumed): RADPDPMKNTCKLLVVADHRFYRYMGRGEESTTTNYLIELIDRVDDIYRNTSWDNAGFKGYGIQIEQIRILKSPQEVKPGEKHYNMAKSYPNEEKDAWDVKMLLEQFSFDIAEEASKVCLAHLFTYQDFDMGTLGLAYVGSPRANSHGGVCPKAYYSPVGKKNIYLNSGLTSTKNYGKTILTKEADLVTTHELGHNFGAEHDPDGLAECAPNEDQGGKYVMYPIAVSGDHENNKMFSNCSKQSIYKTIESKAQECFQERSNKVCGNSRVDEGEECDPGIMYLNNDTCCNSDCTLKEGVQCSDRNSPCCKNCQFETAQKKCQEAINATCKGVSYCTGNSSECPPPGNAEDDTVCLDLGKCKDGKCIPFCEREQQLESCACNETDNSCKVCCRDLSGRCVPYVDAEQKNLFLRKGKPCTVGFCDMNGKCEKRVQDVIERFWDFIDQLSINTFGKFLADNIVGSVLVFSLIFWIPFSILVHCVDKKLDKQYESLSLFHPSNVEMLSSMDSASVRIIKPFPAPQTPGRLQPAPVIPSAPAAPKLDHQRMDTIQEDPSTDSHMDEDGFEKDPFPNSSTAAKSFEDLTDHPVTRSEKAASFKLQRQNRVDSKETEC

MMP-1 = target: T1, MMP-1 (Homo sapiens, UniProt P03956); assay: MMP-1 inhibition (thiopeptide or fluorescent peptide substrate); details: read-out: MMP-1 IC50
T1 sequence (P03956 100-469): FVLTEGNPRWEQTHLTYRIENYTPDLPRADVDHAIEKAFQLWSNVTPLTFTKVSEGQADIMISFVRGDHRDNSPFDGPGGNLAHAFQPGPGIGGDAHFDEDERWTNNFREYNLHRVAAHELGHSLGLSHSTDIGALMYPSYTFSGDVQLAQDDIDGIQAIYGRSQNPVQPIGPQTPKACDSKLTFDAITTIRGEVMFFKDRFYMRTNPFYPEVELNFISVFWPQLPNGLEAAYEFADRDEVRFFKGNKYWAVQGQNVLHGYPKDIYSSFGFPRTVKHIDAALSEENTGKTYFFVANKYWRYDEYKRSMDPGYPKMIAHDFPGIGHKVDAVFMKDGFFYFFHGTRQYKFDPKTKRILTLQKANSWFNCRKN

[2] = Table 10, read-out: MMP-13 IC50
[3] = Table 11, read-out: MMP-13 IC50

Structure (SMILES) | IC50 (MMP-1; Table 11) [µM] | IC50 (MMP-13; [3]) [µM] | IC50 ([1]; Table 11) [µM] | other results
CC#CCOc1ccc(S(=O)(=O)N(C)C(C(=O)NO)C(C)(C)SCc2cccnc2)cc1 (stereo not drawn) [Example 152, 2-[(4-but-2-ynyloxy-Benenesulfonyl)-methyl-amino]-N-hydroxy-3-methyl-3-(pyridin-3-ylmethylsulfanyl)-butyramide] | – | – | – | IC50 (MMP-13; MMP-13 IC50): 0.0017 µM; IC50 (MMP-9): 0.0037 µM; IC50 [1]: 0.074 µM
CC#CCOc1ccc(S(=O)(=O)N2CCNCC2C(=O)NO)cc1 (stereo not drawn) [Example 214, 1-(4-but-2-ynyloxy-Benzenesulfonyl)-piperazine-2-carboxylic Acidhydroxyamide] | – | – | – | IC50 (MMP-13; read-out: MMP-13 IC50): 0.0076 µM; IC50 (MMP-9): 0.014 µM; IC50 [1]: 0.023 µM
CC(=O)OCC#CCOc1ccc(S(=O)(=O)N2CCSC(C)(C)[C@@H]2C(=O)NO)cc1 [Example 261, 4-[4-({(3S3-[(Hydroxyamino)carbonyl]-2,2-dimethylthiomorpholinyl}sulfonyl)phenoxy]-2-butynyl Acetate] | – | – | – | IC50 (MMP-1; Table 10): 0.103 µM; IC50 (MMP-13; [2]): 0.0011 µM; IC50 ([1]; Table 10): 0.045 µM
CC1(C)SCCN(S(=O)(=O)c2ccc(OCC#CC#CCO)cc2)[C@H]1C(=O)NO [Example 262, (3S)-N-Hydroxy-4-({4-[(6-hydroxy-2,4-hexadiynyl)oxy]phenyl}sulfonyl)-2,2-dimethyl-3-thiomorpholine Carboxamide] | – | – | – | IC50 (MMP-1; Table 10): 0.0099 µM; IC50 (MMP-13; [2]): 0.014 µM; IC50 ([1]; Table 10): 0.039 µM
C#CC#CCOc1ccc(S(=O)(=O)N2CCSC(C)(C)[C@@H]2C(=O)NO)cc1 [Example 263] | – | – | – | IC50 (MMP-1; Table 10): 0.0057 µM; IC50 (MMP-13; [2]): 0.011 µM; IC50 ([1]; Table 10): 0.042 µM
CC1(C)SCCN(S(=O)(=O)c2ccc(OCC#CCF)cc2)[C@H]1C(=O)NO [Example 264, (3S)-4-({4-[(4-Fluoro-2-butynyl)oxy]phenyl}sulfonyl)-N-hydroxy-2,2-dimethyl-3-thiomorpholine Carboxamide] | – | – | – | IC50 (MMP-1; Table 10): 0.011 µM; IC50 (MMP-13; [2]): 0.0025 µM; IC50 ([1]; Table 10): 0.035 µM
CC(=O)OCCCCC#CCOc1ccc(S(=O)(=O)N2CCSC(C)(C)[C@@H]2C(=O)NO)cc1 [Example 268, 7-[4-({(3S)-3-[(Hydroxyamino)carbonyl]-2,2-dimethylthiomorpholinyl}sulfonyl)phenoxy]-5-heptynyl Acetate] | – | – | – | IC50 (MMP-1; Table 10): 0.029 µM; IC50 (MMP-13; [2]): 0.0029 µM; IC50 ([1]; Table 10): 0.078 µM
CC1(C)SCCN(S(=O)(=O)c2ccc(OCC#CCCCCO)cc2)[C@H]1C(=O)NO [Example 269, (3S)-N-Hydroxy-4-([4-[(7-hydroxy-2-heptynyl)oxy]phenyl}sulfonyl)-2,2-dimethyl-3-thiomorpholinecarboxamide] | – | – | – | IC50 (MMP-1; Table 10): 0.101 µM; IC50 (MMP-13; [2]): 0.017 µM; IC50 ([1]; Table 10): 0.053 µM
CC#CCOc1ccc(S(=O)(=O)N2[C@@H](C(=O)NO)C(C)(C)SC[C@@H]2C)cc1 [Example 270, (3S,5S)-4-{[4-(2-Butynyloxy)phenyl]sulfonyl}-N-hydroxy-2,2,5-trimethyl-3-thiomorpholinecarboxamide] | 0.032 | 0.061 | 0.086 | –
CC#CCOc1ccc(S(=O)(=O)N2[C@H](C)CSC(C)(C)[C@@H]2C(=O)NO)cc1 [Example 271, (3S,5R)-4-{[4-(2-Butynyloxy)phenyl]sulfonyl}-N-hydroxy-2,2,5-trimethyl-3-thiomorpholinecarboxamide] | 0.047 | 0.088 | 0.045 | –
CC#CCOc1ccc(S(=O)(=O)N2C[C@H](CC(=O)OC(C)(C)C)SC(C)(C)[C@@H]2C(=O)NO)cc1 [Example 277, tert-Butyl{(2S,5S)-4-{[4-(2-butynyloxy)phenyl]sulfonyl}-5-[(hydroxyamino)carbonyl]-6,6-dimethylthiomorpholinyl}acetate] | 0.0078 | 0.0076 | 0.234 | –
CC#CCOc1ccc(S(=O)(=O)N2C[C@H](CC(=O)O)SC(C)(C)[C@@H]2C(=O)NO)cc1 [Example 278, [(2S,5S)-4-{[4-(2-Butynyloxy)phenyl]sulfonyl}-5-[(hydroxyamino)carbonyl]-6,6-dimethylthiomorpholinyl}acetic Acid] | 0.017 | 0.0067 | 0.02 | –
CC#CCOc1ccc(S(=O)(=O)N2C[C@H](CC(=O)NO)SC(C)(C)[C@@H]2C(=O)NO)cc1 [Example 279, (3S,6S)-4-{[4-(2-Butynyloxy)phenyl]sulfonyl}-N-hydroxy-6-[2-(hydroxyamino)-2-oxoethyl]-2,2-dimethyl-3-thiomorpholinecarboxamide] | 0.021 | 0.0045 | 0.046 | –
CC#CCOc1ccc(S(=O)(=O)N2C[C@H](CC(N)=O)SC(C)(C)[C@@H]2C(=O)NO)cc1 [Example 280, (3S,6S)-6-(2-Amino-2-oxoethyl)-4-{[4-(2-butynyloxy)phenyl]sulfonyl}-N-hydroxy-2,2-dimethyl-3-thiomorpholinecarboxamide] | 0.035 | 0.029 | 0.042 | –
CC#CCOc1ccc(S(=O)(=O)N2C[C@H](CC(=O)N(C)C)SC(C)(C)[C@@H]2C(=O)NO)cc1 [Example 281, (3S,6S)-4-{[4-(2-Butynyloxy)phenyl]sulfonyl}-6-[2-(dimethylamino)-2-oxoethyl]-N-hydroxy-2,2-dimethyl-3-thiomorpholinecarboxamide] | 0.05 | 0.023 | 0.13 | –
CC#CCOc1ccc(S(=O)(=O)N2C[C@H](CC(=O)N3CCOCC3)SC(C)(C)[C@@H]2C(=O)NO)cc1 [Example 282, (3S,6S)-4-{[4-(2-Butynyloxy)phenyl]sulfonyl}-N-hydroxy-2,2-dimethyl-6-[2-(4-morpholinyl)-2-oxoethyl]-3-thiomorpholinecarboxamide] | 0.025 | 0.02 | 0.095 | –
CC#CCOc1ccc(S(=O)(=O)N2C[C@H](CC(=O)N3CCN(C)CC3)SC(C)(C)[C@@H]2C(=O)NO)cc1 [Example 283, (3S,6S)-4-{[4-(2-Butynyloxy)phenyl]sulfonyl}-N-hydroxy-2,2-dimethyl-6-[2-(4-methyl-1-piperazinyl)-2-oxoethyl]-3-thiomorpholinecarboxamide hydrochloride] | 0.028 | 0.023 | 0.143 | –
CC#CCOc1ccc(S(=O)(=O)N2C[C@H](CC(=O)NCCN(C)C)SC(C)(C)[C@@H]2C(=O)NO)cc1 [Example 284, (3S,6S)-4-{[4-(2-Butynyloxy)phenyl]sulfonyl}-6-(2-{[2-(dimethylamino)ethyl]amino}-2-oxoethyl)-N-hydroxy-2,2-dimethyl-3-thiomorpholinecarboxamide] | 0.031 | 0.076 | 0.125 | –
CC#CCOc1ccc(S(=O)(=O)N2CCNCCC2C(=O)NO)cc1 (stereo not drawn) [Example 292, 4-{[4-(2-Butynyloxy)phenyl]sulfonyl}-N-hydroxy-1,4-diazepane-5-carboxamide] | – | – | – | IC50 (MMP-1): 0.274 µM; IC50 (MMP-13; read-out: MMP-13 IC50): 0.033 µM; IC50 [1]: 0.024 µM
CC#CCOc1ccc(S(=O)(=O)N2CCN(C)CCC2C(=O)NO)cc1 (stereo not drawn) [Example 293, 4-{[4-(2-Butynyloxy)phenyl]sulfonyl}-N-hydroxy-1-methyl-1,4-diazepane-5-carboxamide] | – | – | – | IC50 (MMP-1): 0.238 µM; IC50 (MMP-13; MMP-13 IC50): 0.021 µM; IC50 [1]: 0.023 µM
CC#CCOc1ccc(S(=O)(=O)N2C=CSC(C)(C)[C@@H]2C(=O)NO)cc1 [Example 379, (3S)-4-{[4-(2-Butynyloxy)phenyl]sulfonyl}-N-hydroxy-2,2-dimethyl-3,4-dihydro-2H-1,4-thiazine-3-carboxamide] | 0.316 | 0.271 | 0.016 | –
